Experimental data: article PMC6150735, “Molecular Docking-Based Design and Development of a Highly Selective Probe Substrate for UDP-glucuronosyltransferase 1A10” (Molecular Pharmaceutics, 2018)
“Also recorded” adds a separate entry of the source.

Key:
UGT1A1 = experiment: Recombinant human UGT screen: glucuronidation by UGT1A1; type: biochemical; details: 10 μM aglycone, recombinant UGTs
Description: Recombinant human UGTs 1A1, 1A3, 1A6, 1A7, 1A8, 1A9, 1A10, 2A1, 2A2, 2A3, 2B4, 2B10, 2B7, and 2B17 were produced, as His-tagged proteins, in baculovirus-infected insect cells as previously described.[37]−[39] The relative expression level of each of these recombinant UGTs was evaluated by immunodetection, using monoclonal antibody against the His-tag, as described elsewhere.[40] A numeric value of 1.0 was given to the expression level of UGT1A8 and the relative expression level of each of the other UGTs was related to this value. Normalized activities were obtained by dividing the glucuronidation rate values by the relative expression level of the tested UGT. […] The expression levels of the UGTs in the commercial samples could not be determined, so their protein concentration was used to calculate the reaction rate.
The incubation mixtures for glucuronidation assays contained 100 mM Tris-HCl buffer pH 7.4, 2.5 mM MgCl2, 0.5 mM UDPGA, recombinant UGT, or microsomes as the enzyme source and 0–15 μM of the test aglycone substrate. […] In subsequent experiments, the control samples lacked the enzyme source since it gave the highest fluorescence background. […] Fluorescence spectra (excitation 200–420 nm; emission 400–600 nm) or fluorescence decrease at 390 nm excitation and 460 nm emission, were measured in these preliminary experiments, using a Shimadzu RF-5000 spectrophotofluorometer. […]

[1] = Absorbance spectra of coumarin derivatives; type: physicochemical; details: 10 μM, 100 mM Tris–HCl pH 7.4, 10% dimethyl sulfoxide
Description: (§1) The absorbance spectra of 10 μM coumarin derivatives at 100 mM Tris–HCl pH 7.4 containing 10% dimethyl sulfoxide were measured using a Hitachi U-2000 Spectrophotometer (Tokyo, Japan). Excitation and emission fluorescence spectra of 0.1 μM coumarin derivatives in 100 mM Tris-HCl pH 7.4 were measured using a Shimadzu RF-5000 spectrophotofluorometer (Tokyo, Japan). The excitation spectra was from 200 to 420 at 460 nm emission and the emission spectra was from 400 to 600 at 390 nm excitation (data in Supplementary Table S1 and Figures S1 and S2). The effect of pH on fluorescence intensity was determined at 405 nm excitation and 460 nm emission, in the presence of 1.5% trichloroacetic acid, 100 mM phosphate buffers at pH 5, 6, 7, 8, and 9, or 1.6 M glycine–NaOH pH 10.4.

[2] = Excitation and emission fluorescence spectra of coumarin derivatives; type: physicochemical; set-up: dose or concentration left out as unconfirmed
Description: as §1, with “Excitation and emission fluorescence spectra of 0.1 μM coumarin derivatives in 100 mM Tris-HCl pH 7.4 were measured using a Shimadzu RF-5000 spectrophotofluorometer (Tokyo, Japan).” left out

[3] = molecular target: T1, UGT1A10 mutant 1A10-H210M (Homo sapiens, UniProt Q9HAW8, H210M); experiment: Glucuronidation kinetics by UGT1A10 mutant 1A10-H210M (fluorescence decrease, 96-well plate); type: biochemical; details: mutant versus wild-type UGT1A10
T1 construct: His-tag; made in house; host or cells: baculovirus-infected SF9 insect cells
T1 sequence (Q9HAW8 26-530 H210M): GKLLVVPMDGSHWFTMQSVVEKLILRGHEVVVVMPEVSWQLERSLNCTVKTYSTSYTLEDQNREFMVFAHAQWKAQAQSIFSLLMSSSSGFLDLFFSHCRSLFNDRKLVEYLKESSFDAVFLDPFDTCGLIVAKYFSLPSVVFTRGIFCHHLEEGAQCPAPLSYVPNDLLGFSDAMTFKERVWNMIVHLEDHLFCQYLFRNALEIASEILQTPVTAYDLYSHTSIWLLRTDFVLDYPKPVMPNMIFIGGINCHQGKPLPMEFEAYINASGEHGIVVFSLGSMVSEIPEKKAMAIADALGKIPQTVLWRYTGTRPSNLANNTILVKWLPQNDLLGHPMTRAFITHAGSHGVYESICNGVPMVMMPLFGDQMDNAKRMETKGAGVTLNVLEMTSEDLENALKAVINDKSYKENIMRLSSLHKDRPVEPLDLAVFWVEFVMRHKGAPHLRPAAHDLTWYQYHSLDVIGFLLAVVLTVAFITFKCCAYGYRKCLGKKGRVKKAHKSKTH
Description: The UGT1A10 mutant 1A10-H210 M was prepared according to the QuikChange methodology, using the cloned UGT1A10 in pFastBac[42] as a template and the following two oligonucleotides:
The entire coding sequence of UGT1A10 in the mutant clone was sequenced, and subsequently, recombinant baculovirus was prepared and used to express the mutant enzyme in baculovirus-infected SF9 insect cells.
The incubation mixtures for glucuronidation assays contained 100 mM Tris-HCl buffer pH 7.4, 2.5 mM MgCl2, 0.5 mM UDPGA, recombinant UGT, or microsomes as the enzyme source and 0–15 μM of the test aglycone substrate. When the incubation mixtures contained microsomes, alamethicin was used at a final concentration of 12.5 μg/mL, but it was not included in the recombinant enzyme assays.[43] In the first experiments three negative control samples were tested, namely (i) without the substrate 7-hydroxycoumarin derivative, (ii) without the cofactor UDPGA, or (iii) without the enzyme source. In subsequent experiments, the control samples lacked the enzyme source since it gave the highest fluorescence background. […] Fluorescence spectra (excitation 200–420 nm; emission 400–600 nm) or fluorescence decrease at 390 nm excitation and 460 nm emission, were measured in these preliminary experiments, using a Shimadzu RF-5000 spectrophotofluorometer.
Most of the glucuronidation assays were carried out in 96 multiwell plate format, and incubations were carried out in 100 μL and at 37 °C, in the presence of Tris–HCl buffer pH 7.4, UDPGA, and the tested 7-hydroxycoumarin derivative, at the indicated concentrations. Fluorescence decline in the multiwell plate experiments was monitored every other minute, for 40 min, using an excitation filter at 405 nm and detection at 460 nm, in a Victor2 1420 Multilabel counter (PerkinElmer, Life Sciences, Turku, Finland). The fluorescence values were transformed into molarity using the aglycone substrates for making the respective standard curves. […] Enzyme catalyzed glucuronidation rate was calculated by subtracting the blank value from the full reaction value. […]

human UGTs = experiment: Recombinant human UGT screen: glucuronidation rates across human UGTs; type: biochemical; details: 10 μM aglycone
Description: Recombinant human UGTs 1A1, 1A3, 1A6, 1A7, 1A8, 1A9, 1A10, 2A1, 2A2, 2A3, 2B4, 2B10, 2B7, and 2B17 were produced, as His-tagged proteins, in baculovirus-infected insect cells as previously described.[37]−[39] The relative expression level of each of these recombinant UGTs was evaluated by immunodetection, using monoclonal antibody against the His-tag, as described elsewhere.[40] A numeric value of 1.0 was given to the expression level of UGT1A8 and the relative expression level of each of the other UGTs was related to this value. Normalized activities were obtained by dividing the glucuronidation rate values by the relative expression level of the tested UGT. In addition, UGTs 1A4, 2B10, and 2B15 were purchased from Corning Life Sciences (New York) and are marked, in Figure 5, with a “C” to indicate that they are commercial enzymes. The expression levels of the UGTs in the commercial samples could not be determined, so their protein concentration was used to calculate the reaction rate.
(§2) The incubation mixtures for glucuronidation assays contained 100 mM Tris-HCl buffer pH 7.4, 2.5 mM MgCl2, 0.5 mM UDPGA, recombinant UGT, or microsomes as the enzyme source and 0–15 μM of the test aglycone substrate. When the incubation mixtures contained microsomes, alamethicin was used at a final concentration of 12.5 μg/mL, but it was not included in the recombinant enzyme assays.[43] In the first experiments three negative control samples were tested, namely (i) without the substrate 7-hydroxycoumarin derivative, (ii) without the cofactor UDPGA, or (iii) without the enzyme source. In subsequent experiments, the control samples lacked the enzyme source since it gave the highest fluorescence background. Preliminary experiments were done under different conditions than most of the later assays, namely in 2.5 mL of 100 mM phosphate buffer pH 7.4, containing 500 μg pig liver microsomes, 1.0 μM compound 6 and 0.5 mM UDPGA, at room temperature. Fluorescence spectra (excitation 200–420 nm; emission 400–600 nm) or fluorescence decrease at 390 nm excitation and 460 nm emission, were measured in these preliminary experiments, using a Shimadzu RF-5000 spectrophotofluorometer.
(§3) Most of the glucuronidation assays were carried out in 96 multiwell plate format, and incubations were carried out in 100 μL and at 37 °C, in the presence of Tris–HCl buffer pH 7.4, UDPGA, and the tested 7-hydroxycoumarin derivative, at the indicated concentrations. Fluorescence decline in the multiwell plate experiments was monitored every other minute, for 40 min, using an excitation filter at 405 nm and detection at 460 nm, in a Victor2 1420 Multilabel counter (PerkinElmer, Life Sciences, Turku, Finland). The fluorescence values were transformed into molarity using the aglycone substrates for making the respective standard curves. Slopes of the substrate concentration decrease per minute were calculated using linear regression analysis, in which the linear part of the kinetic assay indicated the glucuronidation rate. Enzyme catalyzed glucuronidation rate was calculated by subtracting the blank value from the full reaction value. The intra-assay variability of the kinetic assays was 6% when compound 6 was used as the aglycone substrate. Kinetic analyses were also performed in the same 96 multiwell plates format, with excitation filter at 405 nm and detection at 460 nm, using 6–8 different substrate concentrations per substrate and two different protein concentrations for both the wild-type and mutant UGT1A10. The higher concentrations, 13.5 mg/L for UGT1A10 and 12.0 mg/L for the UGT1A10 mutant, were used when the substrates were HFC, compounds 4 and 6, whereas the lower protein concentrations, 6.75 and 6.0 mg/L for UGT1A10 and the mutant, respectively, were used when the substrates were compounds 1, 2, 3, and 5.

[4] = tested on: human intestinal microsomes (HIM); experiment: Glucuronidation by human intestinal microsomes (HIM); type: in vitro ADME; details: 10 μM aglycone
Description: (§4) A commercial HLM pool (cat no:452210, BD Gentest, Bedford, MA) and human intestine microsomes (HIM) pool (lot. no 1110189, XenoTech, Kansas City, KS) were purchased. Pig liver samples were prepared from untreated female pigs that were used for practicing surgical procedures at the University of Kuopio (currently: University of Eastern Finland, Kuopio campus). Other animal liver microsomes were prepared as described previously.[41] The Ethics Committee for Animal Experiments, University of Kuopio, approved these experiments.
as §2, §3

[5] = tested on: human liver microsomes (HLM); experiment: Glucuronidation by human liver microsomes (HLM); type: in vitro ADME; details: 10 μM aglycone
Description: as §4, §2, §3

SMILES	Glucuronidation rate by UGT1A1 relative to the corresponding UGT1A10 rate (UGT1A1)	Amax [1]	ε abs [1]	Fluorescence EMmax [2]	Fluorescence EXmax [2]	Change of Km by the H210M mutation (in words) [3]	UGT(s) that primarily glucuronidate the substrate (human UGTs; control substrates)	Glucuronidation rate, HLM compared with HIM (in words) [4]	Selectivity among human UGTs (human UGTs; other UGTs at very low rates)	Glucuronidation by HLM (in words) [5]
COc1ccc(-c2cc3ccc(O)cc3oc2=O)cc1 [Compound 3, 7-hydroxy-3-(4-methoxyphenyl)coumarin]	~20%	350 nm	17300 M⁻¹ cm⁻¹	472 nm	368 nm	–	–	–	–	–
O=c1cc(C(F)(F)F)c2ccc(O)cc2o1 [HFC, 4-(trifluoromethyl)-7-hydroxycoumarin, reference compound]	–	–	–	–	–	increase	UGT1A6 and UGT1A10	much higher rates by HLM than by HIM	–	–
O=c1oc2cc(O)ccc2cc1-c1ccc(F)cc1 [Compound 1, 7-hydroxy-3-(4-fluorophenyl)-2H-chromen-2-one]	about 40%	344 nm	19000 M⁻¹ cm⁻¹	466 nm	–	–	–	–	–	–
O=c1oc2cc(O)ccc2cc1-c1ccc(O)cc1 [Compound 2, 7-hydroxy-3-(4-hydroxyphenyl)-2H-chromen-2one]	–	352 nm	20000 M⁻¹ cm⁻¹	475 nm	395 nm	considerably increased	–	–	selective for UGT1A10	not glucuronidated by HLM at all, or only at very low rates; also recorded: very low or below the detection limit
